Reference: PMC10974768 (Toxins, 2024)
Like-named read-outs stand apart in the source and are kept apart here.

Legend:
CYP2C8 [1] = details: cited from earlier work
CYP2C8 [2] = details: cited from earlier work; remark: listed apart in the source
[3] = system: CYP1A, CYP2A, CYP2C, CYP2B, CYP2E and CYP3A in porcine liver microsomes; details: concentration of 3 μM; cited from earlier work
CYP3A4 [4] = details: read-out: IC50 for CYP3A4; human liver microsomes; cited from earlier work
broilers = details: AFB1 and TIA co-administrated
CYP2B6 = experiment: in vitro; details: chicken, microsomes, pH 7.4
Experimental: (§1) A cocktail-approach for elucidating the metabolites profiling and CYP450 inhibition was conducted as in Lin et al. with minor changes. The incubation mixture contained 50 μL of 0.2 mg/mL of CLM, 10 μL of 0.1 M phosphate buffer (pH 7.4), 40 μL of 1 mM NADPH and six probe substrates with a total volume of 200 μL. The specific probe substrates used for each CYP450 isoenzyme in the incubation mixture were as follows: PH (CYP1A2), BP (CYP2B6), CLN (CYP2E1), TBD (CYP2C9), CAN (CYP2A6), and MDZ (CYP3A4). Probes substrates were dissolved in methanol as stock solution (1 mg/mL). All of them were diluted to the final concentrations (see Supplemental Materials) with incubation buffer and the percentage of organic solvent in the final incubation volume was below 1% (v/v). Briefly, the mixture was preincubated in a thermoshaker (Biosan, Geraardsbergen, Belgium) for 5 min at 37 °C prior to the initiation of the reaction with NADPH.4Na. After incubation, the mixture was terminated by 400 μL ice-cold acetonitrile. […] A volume of 5 µL of supernatant was analysed using UHPLC-MS/MS.

CYP1A2 = experiment: in vitro; details: chicken, microsomes, pH 7.4
Experimental: as §1

CYP3A4 [5] = experiment: in vitro; details: chicken, pH 7.4
Experimental: as §1

[6] = system: CYP1A2, CYP2B6, CYP2E1, CYP2C9, CYP2A6, CYP3A4 (summary bound over all); experiment: in vitro; details: chicken, microsomes, pH 7.4
Experimental: as §1

CYP2C9 = experiment: in vitro; details: chicken, microsomes, pH 7.4
Experimental: as §1

CYP2E1 = experiment: in vitro; details: chicken, pH 7.4
Experimental: as §1

CYP2A6 = experiment: in vitro; details: chicken, microsomes, pH 7.4
Experimental: as §1

in vivo = type: in vivo, broiler chickens (Ross 308); details: for TIA concentration in chicken plasma, Treatment group: AFB1 diet 20 µg/kg feed for 2 weeks
[7] = chickens exposed to AFB1 (750 µg/kg); nonsignificant; cited from earlier work
CYP3A = details: chickens; doses of 25 and 125 mg/kg body weight; cited from earlier work
[8] = AFB1 diet 20 µg/kg feed for 2 weeks vs control, TIA oral 25 mg/kg BW, p < 0.01
[9] = TIA oral bolus 25 mg/kg BW, chickens not pretreated with AFB1 (control feed for 2 weeks), n = 9, mean ± SD

CC1(C)S[C@@H]2[C@H](NC(=O)[C@H](N)c3ccc(O)cc3)C(=O)N2[C@H]1C(=O)O [Amoxicillin]
IC50 (CYP2C8 [1]): 830 µM

COc1cc(Cc2cnc(N)nc2N)cc(OC)c1OC [Trimethoprim]
inhibitory effect on CYP2C8 (CYP2C8 [2]): weak inhibitory effect

CCC[C@@H]1C[C@@H](C(=O)N[C@@H]([C@H]2O[C@H](SC)[C@H](O)[C@@H](O)[C@H]2O)[C@@H](C)O)N(C)C1 [lincomycin]
inhibition of CYP1A, CYP2A, CYP2C, CYP2B, CYP2E and CYP3A [3]: inhibits

C=C[C@]1(C)C[C@@H](OC(=O)CSCCN(CC)CC)[C@]2(C)[C@H](C)CC[C@]3(CCC(=O)[C@H]32)[C@@H](C)[C@@H]1O [TIA, tiamulin]
IC50 (CYP3A4 [4]): 1600 nM | adverse health effects in broilers (broilers): No significant adverse health effects | IC50 (CYP2B6): > 40 µM | IC50 (CYP1A2): > 40 µM | IC50 (CYP3A4 [5]; microsomes): > 40 µM | IC50 for CYP3A4 (CYP3A4 [5]): 334.2 µM | IC50 [6]: > 7.6 µM | IC50 (CYP2C9): > 40 µM | IC50 (CYP2E1; microsomes): > 40 µM | IC50 for CYP2E1 (CYP2E1): 47.6 µM | IC50 (CYP2A6): 7.6 µM | TIA concentration in chicken plasma, Treatment group (in vivo; 0.25 h after oral TIA 25 mg/kg BW, mean ± SD): 134 ± 71.5 ng/mL | TIA concentration in chicken plasma, Treatment group (in vivo; 0.50 h after oral TIA 25 mg/kg BW, mean ± SD): 83.7 ± 40.2 ng/mL | TIA concentration in chicken plasma, Treatment group (in vivo; 1 h after oral TIA 25 mg/kg BW, mean ± SD): 76.7 ± 40.2 ng/mL | TIA concentration in chicken plasma, Treatment group (in vivo; 2 h after oral TIA 25 mg/kg BW, mean ± SD): 91.0 ± 61.2 ng/mL | TIA concentration in chicken plasma, Treatment group (in vivo; 3 h after oral TIA 25 mg/kg BW, mean ± SD): 73.6 ± 32.9 ng/mL | TIA concentration in chicken plasma, Treatment group (in vivo; 4 h after oral TIA 25 mg/kg BW, mean ± SD): 29.6 ± 13.8 ng/mL | TIA concentration in chicken plasma, Treatment group (in vivo; 6 h after oral TIA 25 mg/kg BW, mean ± SD): 10.8 ± 3.6 ng/mL | TIA concentration in chicken plasma, Treatment group (in vivo; 8 h after oral TIA 25 mg/kg BW, mean ± SD): 10.4 ± 3.7 ng/mL | TIA concentration in chicken plasma, Treatment group (in vivo; 12 h after oral TIA 25 mg/kg BW, mean ± SD): 9.60 ± 3.0 ng/mL | TIA concentration in chicken plasma, Treatment group (in vivo; 24 h after oral TIA 25 mg/kg BW, mean ± SD): 9.50 ± 3.3 ng/mL | increase of Cmax of TIA by AFB1 exposure (in vivo; AFB1 diet 20 µg/kg feed for 2 weeks vs control, TIA oral 25 mg/kg BW): 155% | CL_F_obs of TIA in AFB1-exposed group lower than in the control group (in vivo; [8]): 63% | Vd_F_obs of TIA in AFB1-exposed group lower than in the control group (in vivo; [8]): 57% | increase of AUClast of TIA by AFB1 exposure (in vivo; [8]): 167% | Tmax, Control (in vivo; [9]): 24 ± 12 min | Vd_F_obs, Control (in vivo; [9]): 715.1 ± 228.45 L/kg | Vd_F_obs, Treatment (in vivo; TIA oral bolus 25 mg/kg BW, chickens pretreated with AFB1 contaminated diet (20 µg/kg feed for 2 weeks), n = 8, mean ± SD): 407.1 ± 142.5 L/kg | AUC(0-t) (in vivo; male, Ross 308, in vivo, po, 25 mg/kg, TIA oral bolus 25 mg/kg BW, chickens not pretreated with AFB1 (control feed for 2 weeks), last sampling point 180 h, n = 9, mean ± SD, read-out: AUClast, Control): 294 ± 63.3 ng·h/mL | AUC(0-inf) (in vivo; male, Ross 308, in vivo, po, 25 mg/kg, TIA oral bolus 25 mg/kg BW, chickens not pretreated with AFB1 (control feed for 2 weeks), n = 9, mean ± SD, read-out: AUCINF_obs, Control): 357 ± 69.6 ng·h/mL | CL/F (in vivo; male, Ross 308, in vivo, po, 25 mg/kg, TIA oral bolus 25 mg/kg BW, chickens not pretreated with AFB1 (control feed for 2 weeks), n = 9, mean ± SD, read-out: CL_F_obs, Control (converted)): 1200 mL/min/kg | Cmax (in vivo; male, Ross 308, in vivo, po, 25 mg/kg, TIA oral bolus 25 mg/kg BW, chickens not pretreated with AFB1 (control feed for 2 weeks), n = 9, mean ± SD, read-out: Cmax, Control): 89.9 ± 45.9 ng/mL | MRT last (in vivo; male, Ross 308, in vivo, po, 25 mg/kg, TIA oral bolus 25 mg/kg BW, chickens not pretreated with AFB1 (control feed for 2 weeks), n = 9, mean ± SD, read-out: MRTlast, Control): 6.8 ± 1.4 h | half-life (in vivo; male, Ross 308, in vivo, po, 25 mg/kg, TIA oral bolus 25 mg/kg BW, chickens not pretreated with AFB1 (control feed for 2 weeks), n = 9, mean ± SD, read-out: T1/2λz, Control (converted)): 420 ± 174 min | Tmax (in vivo; male, Ross 308, in vivo, po, 25 mg/kg, TIA oral bolus 25 mg/kg BW, chickens not pretreated with AFB1 (control feed for 2 weeks), n = 9, mean ± SD, read-out: Tmax, Control): 26.4 min | AUC(0-inf) (in vivo; male, Ross 308, in vivo, po, 25 mg/kg, TIA oral bolus 25 mg/kg BW, chickens pretreated with AFB1 contaminated diet (20 µg/kg feed for 2 weeks), n = 8, mean ± SD, read-out: AUCINF_obs, Treatment): 586 ± 174 ng·h/mL | CL/F (in vivo; male, Ross 308, in vivo, po, 25 mg/kg, TIA oral bolus 25 mg/kg BW, chickens pretreated with AFB1 contaminated diet (20 µg/kg feed for 2 weeks), n = 8, mean ± SD, read-out: CL_F_obs, Treatment (converted)): 763 mL/min/kg | Cmax (in vivo; male, Ross 308, in vivo, po, 25 mg/kg, TIA oral bolus 25 mg/kg BW, chickens pretreated with AFB1 contaminated diet (20 µg/kg feed for 2 weeks), n = 8, mean ± SD, read-out: Cmax, Treatment): 142 ± 65.4 ng/mL | MRT last (in vivo; male, Ross 308, in vivo, po, 25 mg/kg, TIA oral bolus 25 mg/kg BW, chickens pretreated with AFB1 contaminated diet (20 µg/kg feed for 2 weeks), n = 8, mean ± SD, read-out: MRTlast, Treatment): 6.2 ± 1.8 h | half-life (in vivo; male, Ross 308, in vivo, po, 25 mg/kg, TIA oral bolus 25 mg/kg BW, chickens pretreated with AFB1 contaminated diet (20 µg/kg feed for 2 weeks), n = 8, mean ± SD, read-out: T1/2λz, Treatment (converted)): 378 ± 132 min | Tmax (in vivo; male, Ross 308, in vivo, po, 25 mg/kg, TIA oral bolus 25 mg/kg BW, chickens pretreated with AFB1 contaminated diet (20 µg/kg feed for 2 weeks), n = 8, mean ± SD, read-out: Tmax, Treatment): 60 ± 66 min

CCN1CCN(c2cc3c(cc2F)c(=O)c(C(=O)O)cn3C2CC2)CC1 [enrofloxacin]
increase of AUC0–∞ [7]: 17% | increase of T1/2a [7]: 17% | increase of Tmax [7]: 26% | inhibition of CYP3A activity (CYP3A): inhibit CYP3A activity
